Measurements: the supplement of paper PMC10307832

Key:
Experiment in all cases: relative viability (nuclei count vs DMSO), 5 days (fraction); higher = more cells survive
[1] = compound: COC1=CC=C(C=C1)CN2C=CC3=C2C=C(C=C3)C(=O)NO + CC(C)C[C@H](NC(=O)[C@H](Cc1ccccc1)NC(=O)c1cnccn1)B(O)O [Bortezomib] (partner 0.002 µM)
Procedure, shortened: (§1)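 One day after seeding in 1536-well plates, lung cancer cell lines were dosed by pin tool. Dosing was either single-drug or a fixed anchor-drug dose plus five library-drug doses (not always all listed) in √10 steps. After 5 days, nuclei were stained in one fix-and-stain step and counted on 4× images, and relative viability is the nuclei count of treated wells over that of vehicle wells, given as the median of duplicate plates.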

[2] = compound: COC1=CC=C(C=C1)CN2C=CC3=C2C=C(C=C3)C(=O)NO + CCNC(=O)c1noc(-c2cc(C(C)C)c(O)cc2O)c1-c1ccc(CN2CCOCC2)cc1 [Luminespib] (partner 0.01 µM)
Procedure, shortened: as §1

[3] = compound: COC1=CC=C(C=C1)CN2C=CC3=C2C=C(C=C3)C(=O)NO + Nc1nc2[nH]cc(CCc3ccc(C(=O)N[C@@H](CCC(=O)O)C(=O)O)cc3)c2c(=O)[nH]1 [Pemetrexed] (partner 0.2 µM)
Procedure, shortened: as §1

Veliparib + Tozasertib = compound: C[C@]1(c2nc3c(C(N)=O)cccc3[nH]2)CCCN1 [Veliparib] + Cc1cc(Nc2cc(N3CCN(C)CC3)nc(Sc3ccc(NC(=O)C4CC4)cc3)n2)n[nH]1 [Tozasertib] (partner 0.1 µM)
Procedure, shortened: as §1

## SW 1573
[1]; first compound 0.253 µM
  relative viability: 1.18
[1]; first compound 0.8 µM
  relative viability: 1.15
[1]; first compound 2.53 µM
  relative viability: 1.13
[1]; first compound 8 µM
  relative viability: 0.906
[2]; first compound 0.253 µM
  relative viability: 0.522
[2]; first compound 0.8 µM
  relative viability: 0.279
[2]; first compound 2.53 µM
  relative viability: 0.298
[2]; first compound 8 µM
  relative viability: 0.491
[3]; first compound 0.253 µM
  relative viability: 0.906
[3]; first compound 0.8 µM
  relative viability: 0.82
[3]; first compound 2.53 µM
  relative viability: 0.853
[3]; first compound 8 µM
  relative viability: 0.803
Veliparib + Tozasertib; first compound 0.06325 µM
  relative viability: 0.175
Veliparib + Tozasertib; first compound 0.2 µM
  relative viability: 0.17
Veliparib + Tozasertib; first compound 0.6325 µM
  relative viability: 0.204
Veliparib + Tozasertib; first compound 2 µM
  relative viability: 0.175
